pIC50: −log10 of the molar value.
How the values were obtained:
GQ structures = experiment: BG4 immunofluorescence of GQ foci, hypoxic HeLa cells; type: cell-based; conditions: hypoxic HeLa cells (50 μM CoCl2 60 h), 1 µM C-4,2 for 12 h, vs DMSO-treated hypoxic cells
Protocol: Finally, we investigated C-4,2 capability to impact the formation of GQ structures even in hypoxic HeLa cells.
Figure 7. (A) Representative fields showing G4 foci formation detected by immunofluorescence in HeLa cells pre-treated with 50 μM cobalt (II) chloride hexahydrate for 60 h to induce hypoxia and then exposed to 1 µM C-4,2 or vehicle (0.1% DMSO) for the following 12 h, still in the presence of CoCl2. DMSO-treated normoxic HeLa cells are also shown. Scale bar: 10 µm. Upper panels: the merged channels of BG4-stained GQ structures (magenta) and Hoechst-counterstained nuclei (grey) are reported. Lower panels: enlargements from the pictures in the upper panels. (B) Quantification of the cellular BG4 foci in DMSO-treated normoxic HeLa cells, DMSO-treated hypoxic HeLa cells, and C-4,2-treated hypoxic HeLa cells. An average of 50 cells were screened for each condition. […] The statistical significance was calculated using a one-way ANOVA test on GraphPad Prism 8.0.2 (**: p < 0.01, ****: p < 0.0001).
For the IF experiments in the presence of normal oxygen levels, HeLa cells were seeded on sterile coverslips, in a 24-well plate, at a density of 90,000 cells per well, and incubated overnight. […] From there, the cellular and nuclear foci were segmented, and their number or fluorescence intensity was quantified by using the Image Analysis package of ZEISS ZEN 3.1 software.

HeLa cells = experiment: MTT assay, HeLa cells under hypoxic conditions (CoCl2); type: cell-based
Protocol: Taking into consideration the good cytotoxicity of C-4,2 on cancer cells and its ability to stabilise GQ structures also in the cellular environment, we decided to further evaluate its antitumor potential by testing it under hypoxic conditions, when expression of high amounts of CA IX occurs. To this aim, HeLa cells were pre-treated for 60 h with a non-toxic concentration of cobalt(II) chloride hexahydrate (CoCl2, 50 μM, Figure S14, Supporting Information), which was employed as the chemical inducer of HIF-1α to establish hypoxia[70]^,[71]. After that, HeLa were exposed to increasing concentrations of C-4,2 or vehicle, for the following 12 h, still in the presence of CoCl2. […]
For the MTT experiments in the presence of normal oxygen levels, HeLa cells were seeded in 96-well plates at a density of 15,000 cells per well (culture medium volume – 100 μL/well) and incubated at 37 °C, for 24 h. […] Finally, the optical density of the samples (at 570 nm) was measured on an ELx800 Absorbance Microplate Reader (BioTek Instruments, Inc., Winooski, VT, USA). The percentage (%) of cell survival for each condition was calculated by using the following equation: % cell survival=OD− OD0/ODCONTROL− OD0×100 where OD is the optical density of the sample, OD0 is the optical density of the background signal, and ODCONTROL is the optical density of the control sample (cells treated with vehicle, 0.5% DMSO). […]

`COc1ccc2cc3[n+](cc2c1OCCCCn1cc(COc2ccc4ccc(=O)oc4c2)nn1)CCc1cc2c(cc1-3)OCO2` [Compound 37, 10-Methoxy-9–(4-(4-(((2-oxo-2H-chromen-7-yl)oxy)methyl)-1H-1,2,3-triazol-1-yl)butoxy)-5,6-dihydro-[1,3]dioxolo[4,5-g]isoquinolino[3,2-a]isoquinolin-7-ium hexafluorophosphate] was tested, and the “number of detectable GQs (BG4 foci)” value (GQ structures) was “remarkable increase”, the “cytotoxicity compared with co-exposure to equimolar berberine and C” value (HeLa cells; 12 h, hypoxia (CoCl2)) was “greater” and the pIC50 (HeLa cells; Homo sapiens, 60 h pre-treatment with 50 μM CoCl2, then 12 h treatment, hypoxia) was 4.58.

— paper PMC11195807, “Development of a multi-targeted chemotherapeutic approach based on G-quadruplex stabilisation and carbonic anhydrase inhibition” (Journal of Enzyme Inhibition and Medicinal Chemistry, 2024)
